Where two headings read alike, the source gives them in different places.
Molecular target: T1, WT PfMDH (Plasmodium falciparum, UniProt Q6VVP7)
T1 construct: The full-length WT PfMDH gene was cloned into pETM-13; made in house; host or cells: E. coli Rosetta 2 (DE3) pLysS
Test: Activity screening of 4DT / 4-phenylthiazol-2-amine derivatives (oxidation of malate, absorbance at 340 nm)
Type: biochemical
Details: for inhibition at 500 µM: Dunnett's multiple comparisons test, read-out: Mean Diff. (positive control vs. compound); for Slope repl1 / Slope repl2: linear regression slope of absorbance 340 nm vs time; for Slope normalized repl1: slope relative to control = 1, replicate 1; for Slope normalized repl2: slope relative to control = 1, replicate 2
Procedure: The oxidation of malate to oxaloacetate was assayed spectrophotometrically in flat-bottomed Corning 96-well microplates in a total volume of 250.0 µl in 50 mM glycine buffer pH 10.2[24] with an additional 400 mM NaCl for protein stability. The increase of absorbance at 340 nm was recorded in kinetic mode using a Tecan Spark multimode microplate reader at 298 K. A mastermix of 50 mM NAD+ and 44 μM PfMDH was used for both the screening and kinetics experiments. The final concentration of protein and cofactor were […], respectively. Positive control groups were set (absence of compound) in the same plate as the treated group. The absorbance from the background noise was subtracted from the data and then a linear regression model was employed in order to get the line slope from the first 5 min of the reaction. The percentage of enzymatic activity has been calculated as described by Eq. (1)1 enzymeactivity(%)=slopetreated/slopepositivecontrol*100
1.3 µL of derivatives of 4-phenylthiazol-2-amine in 100% DMSO were mixed with 237.7 µL of a mastermix of WT PfMDH previously incubated with NAD+. The final compound concentration used in this screening was 500 µM in the presence of 0.5% (v/v) DMSO. The microplate was sealed with silver foil for 1-h incubation at 25–35 °C. Finally, reactions in both the samples and control wells were started upon the addition of 13.0 µL of 5 mM malate). At the end of the experiments, the reaction of the plate was spectrophotometrically assayed at 600 nm in order to identify turbidity due to the low solubility of the compound. All measurements were performed in duplicate.

[1] = 500 µM compound, Dunnett test details, positive control mean 100, n 2, read-out: Mean 2 (mean % enzymatic activity of treated group)
[2] = 500 µM compound, control 100%, replicate 1, read-out: % enzymatic activity repl1
[3] = 500 µM compound, control 100%, replicate 2, read-out: % enzymatic activity repl2

T1 sequence (Q6VVP7 entry or part of it): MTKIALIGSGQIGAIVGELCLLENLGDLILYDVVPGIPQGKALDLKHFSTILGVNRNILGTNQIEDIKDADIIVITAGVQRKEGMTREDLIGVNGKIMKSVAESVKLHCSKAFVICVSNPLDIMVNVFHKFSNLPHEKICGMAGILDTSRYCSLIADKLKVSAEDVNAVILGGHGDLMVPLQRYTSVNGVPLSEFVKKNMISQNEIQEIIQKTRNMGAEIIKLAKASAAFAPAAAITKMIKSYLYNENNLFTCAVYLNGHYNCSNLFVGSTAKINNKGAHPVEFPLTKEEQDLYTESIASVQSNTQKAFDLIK

Row | Structure (SMILES) | remaining activity at 500 µM [1] [%] | inhibition at 500 µM (500 µM compound) [%] | remaining activity at 500 µM [2] [%] | remaining activity at 500 µM [3] [%] | Slope repl1 (500 µM compound, replicate 1) | Slope repl2 (500 µM compound, replicate 2) | Slope normalized repl1 (500 µM compound) | Slope normalized repl2 (500 µM compound) | remaining activity at 500 µM (read-out: enzyme activity) [%]
1 | Nc1nc(-c2ccc(F)cc2)cs1 [compound 9a] | 51 | 49 | 57 | 45 | 0.01901 | 0.01582 | 0.5707 | 0.4515 | 51
2 | O=C(O)c1nc(-c2ccccc2)cs1 [4a] | 65 | 35 | 64 | 66 | 0.02124 | 0.02324 | 0.6376 | 0.6632 | 65
3 | CC(C)(C)OC(=O)CNC(=O)c1cc(-c2cccs2)on1 [4b] | 21 | 79.5 | 22 | 19 | 0.007266 | 0.006583 | 0.2181 | 0.1879 | 20

Reference: publication PMC8355244, “A fragment-based approach identifies an allosteric pocket that impacts malate dehydrogenase activity” (Communications Biology, 2021)
